Test results from patent US10730856B2, “Benzimidazole derivatives as EP4 ligands” (BAYER PHARMA AKTIENGESELLSCHAFT, priority 2013, dated 2020).

Biological target: human EP4 receptor (Homo sapiens (Human), UniProt P35408)
Test: hEP4 antagonism test (cAMP HTRF, PGE2-stimulated hEP4-expressing cells)
Assay type: cell-based
Conditions: PGE2-induced stimulation of cAMP production, cells expressing the EP4 receptor; read-out: inhibition of PGE2-induced cAMP production in cells expressing the EP4 receptor, IC50
Source text: The antagonistic action can be determined by an antagonism assay (see Example 3.2.1 of the biological examples).
3. Detection of the Antagonism of the Human Prostaglandin E2 (Subtype ER4) Receptor Signal
Detection of the Antagonization of the hEP4 Signal
Binding of the agonist prostaglandin E2 (PGE2) to the EP4 subtype of the human hPGE2-R (hEP4-R) induces activation of membrane-bound adenylate cyclases and thus the formation of cAMP. In the presence of the phosphodiesterase inhibitor IBMX, this cAMP accumulates intracellularly and is, after cell lysis, employed in a competitive detection method. In this method, it competes with a fluorescently labelled cAMP (cAMP-d2) for binding to an anti-cAMP antibody labelled with an Eu cryptate. In the absence of cellular cAMP, a complex between the Eu-cryptate-labelled anti-cAMP antibody and the cAMP-d2 molecule is formed which, after excitation at 337 nm, allows a FRET-based (FRET=fluorescence resonance energy transfer) enery transfer to the cAMP-d2 tracer and results in a long-lasting fluorescence signal (emission at 665 and 620 nm). This signal is time-resolved, i.e. measured in a suitable measuring device once the background fluorescence has subsided (time resolved; TR-FRET). Additionally, well-ratio determination (emission 665 nm/emission 620 nm*10 000) allows variations in the individual measurements in the added amounts of detection reagents to be normalized.
Administration of prostglandin E2 and increase of intracellular cAMP reduces the FRET signal which increases again if the substance is antagonistically active.
3.2.1 Test for Antagonism (Figures Per Well of a 384-Well Plate):
4 μl of a suspension of hEP4-expressing cells (2500 cells/well) already comprising the cAMP-D2 tracer are added to the substance solutions (50 nl; 100% DMSO) initially charged in a test plate. After 20 minutes of pre-incubation at room temperature, 2 μl of a 3×PGE2 solution are added and the mixture is incubated in the presence of an EC80 concentration of the agonist (0.4 nM) for a further 60 min at room temperature (volume: ˜6 μl), and the whole reaction is then stopped by addition of 2 μl of lysis buffer (volume: ˜8 μl). After a further 20 min at room temperature, the cell lysate is measured in accordance with the instructions of the manufacturer in a measuring instrument suitable for TR-FRET (compare cAMP HTRF assay kit: Cisbio International 62AM6PEJ high range)

human EP4 receptor, sequence (P35408 whole entry): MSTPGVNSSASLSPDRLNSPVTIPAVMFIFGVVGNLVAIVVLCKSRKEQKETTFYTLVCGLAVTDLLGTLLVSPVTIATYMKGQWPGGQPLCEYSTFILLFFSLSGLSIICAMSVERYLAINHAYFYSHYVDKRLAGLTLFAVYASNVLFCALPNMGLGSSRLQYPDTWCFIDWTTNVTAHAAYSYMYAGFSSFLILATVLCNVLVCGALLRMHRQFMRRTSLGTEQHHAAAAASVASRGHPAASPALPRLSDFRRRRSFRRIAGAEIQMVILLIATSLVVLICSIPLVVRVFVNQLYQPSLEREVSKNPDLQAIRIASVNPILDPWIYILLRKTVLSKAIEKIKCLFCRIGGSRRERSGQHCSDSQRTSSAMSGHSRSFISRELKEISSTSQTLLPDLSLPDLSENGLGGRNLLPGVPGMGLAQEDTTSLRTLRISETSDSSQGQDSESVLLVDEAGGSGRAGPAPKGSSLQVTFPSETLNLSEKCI

IC50 [nM] | Compound
~1.5 | CCn1c2ccc(-c3nc4cc(C(=O)O)ccc4n3CCOC)cc2c2cc(C)cc(F)c21 [Example 10, 2-(9-Ethyl-8-fluoro-6-methyl-9H-carbazol-3-yl)-1-(2-methoxyethyl)-1H-benzimidazole-5-carboxylic Acid]

Same assay, conditions: hEP4-expressing cells, PGE2 at EC80 (0.4 nM), cAMP TR-FRET; read-out: hEP4 antagonization IC50

IC50 [nM] | Compound
2.4 | CCn1c2ccc(-c3nc4c(F)c(C(=O)O)ccc4n3CCOC)cc2c2cc(F)cc(C)c21 [Example 7, 2-(9-Ethyl-6-fluoro-8-methyl-9H-carbazol-3-yl)-4-fluoro-1-(2-methoxyethyl)-1H-benzimidazole-5-carboxylic Acid]
32 | CCn1c2ccc(Br)cc2c2cc(-c3nc4c(C)c(C(=O)OC)ccc4n3CCOC)ccc21 [Example 1, Methyl 2-(6-bromo-9-ethyl-9H-carbazol-3-yl)-1-(2-methoxyethyl)-4-methyl-1H-benzimidazole-5-carboxylate]
40 | CCn1c2ccc(-c3nc4c(C)c(C(=O)OC)ccc4n3CCOC)cc2c2cc(C)cc(F)c21 [Example 3, Methyl 2-(9-ethyl-8-fluoro-6-methyl-9H-carbazol-3-yl)-1-(2-methoxyethyl)-4-methyl-1H-benzimidazole-5-carboxylate]
2.8 | CCn1c2ccc(-c3nc4c(C)c(C(=O)O)ccc4n3CCOC)cc2c2cc(C)cc(Cl)c21 [Example 12, 2-(8-Chloro-9-ethyl-6-methyl-9H-carbazol-3-yl)-1-(2-methoxyethyl)-4-methyl-1H-benzimidazole-5-carboxylic Acid]
2.4 | CCn1c2ccc(-c3nc4c(C)c(C(=O)O)ccc4n3CCOC)cc2c2cc(C)cc(F)c21 [Example 4, 2-(9-Ethyl-8-fluoro-6-methyl-9H-carbazol-3-yl)-1-(2-methoxyethyl)-4-methyl-1H-benzimidazole-5-carboxylic Acid]
1.9 | CCn1c2ccc(-c3nc4c(F)c(C(=O)O)ccc4n3CCOC)cc2c2cc(C)cc(F)c21 [Example 8, 2-(9-Ethyl-8-fluoro-6-methyl-9H-carbazol-3-yl)-4-fluoro-1-(2-methoxyethyl)-1H-benzimidazole-5-carboxylic Acid]
62 | CCOC(=O)c1ccc2c(c1)nc(-c1ccc3c(c1)c1cc(C)cc(F)c1n3CC)n2CCOC [Example 9, Ethyl 2-(9-ethyl-8-fluoro-6-methyl-9H-carbazol-3-yl)-1-(2-methoxyethyl)-1H-benzimidazole-5-carboxylate]
11 | CCn1c2ccc(Br)cc2c2cc(-c3nc4c(C)c(C(=O)O)ccc4n3CCOC)ccc21 [Example 2, 2-(6-Bromo-9-ethyl-9H-carbazol-3-yl)-1-(2-methoxyethyl)-4-methyl-1H-benzimidazole-5-carboxylic Acid]
1.5 | CCn1c2ccc(-c3nc4cc(C(=O)O)ccc4n3CCOC)cc2c2cc(C)cc(F)c21 [Example 10, 2-(9-Ethyl-8-fluoro-6-methyl-9H-carbazol-3-yl)-1-(2-methoxyethyl)-1H-benzimidazole-5-carboxylic Acid]
47 | CCn1c2ccc(-c3nc4c(C)c(C(=O)OC)ccc4n3CCOC)cc2c2cc(C)cc(Cl)c21 [Example 11, Methyl 2-(8-chloro-9-ethyl-6-methyl-9H-carbazol-3-yl)-1-(2-methoxyethyl)-4-methyl-1H-benzimidazole-5-carboxylate]
2 | CCn1c2ccc(-c3nc4c(C)c(C(=O)O)ccc4n3CCOC)cc2c2cc(F)cc(C)c21 [Example 6, 2-(9-Ethyl-6-fluoro-8-methyl-9H-carbazol-3-yl)-1-(2-methoxyethyl)-4-methyl-1H-benzimidazole-5-carboxylic Acid]
